Counter-ions that a name gives are not always drawn. Like-named read-outs stand apart in the source and are kept apart here.
Assays:
[1] = target: T1, SARS-CoV-2 PLpro (nsp3 1564–1878) (Severe acute respiratory syndrome coronavirus 2, UniProt P0DTD1); experiment: biochemical; set-up: FRET-quenched peptide (Pro3) cleavage by PLpro, 10 min pre-incubation, slope over 20 min, normalised to no-compound control; conditions: high concentration screen, read-out: % of control remaining
[2] = target: T1, SARS-CoV-2 PLpro (nsp3 1564–1878); experiment: biochemical; set-up: FRET-quenched peptide (Pro3) cleavage by PLpro, 10 min pre-incubation, slope over 20 min, normalised to no-compound control; conditions: low concentration screen, read-out: % of control remaining

**Q.** Which results are given for `O=c1ccc2ccc(O)c(O)c2o1` [Daphnetin]?
**A.** remaining activity at 3.75 µM ([1]; Well no.=405): 101%; remaining activity at 1.25 µM ([2]; Well no.=405): 102%

**Q.** What does the source list for `Cc1ccccc1N1CCN(CCc2nnc3n2CCCC3)CC1` [Dapiprazole (hydrochloride)]?
**A.** remaining activity at 3.75 µM ([1]; Well no.=6895): 100%; remaining activity at 1.25 µM ([2]; Well no.=6895): 97.8%

**Q.** What does the source list for `Cc1cc(C)c(Nc2ccnc(Nc3ccc(C#N)cc3)n2)c(C)c1` [Dapivirine]?
**A.** remaining activity at 3.75 µM ([1]; Well no.=5223): 98.3%; remaining activity at 1.25 µM ([2]; Well no.=5223): 97.4%

**Q.** How did the remaining activity at 3.75 µM ([1]; Well no.=5853) turn out when `CN(C)[C@@H](CCOc1cccc2ccccc12)c1ccccc1` [Dapoxetine hydrochloride] was run?
**A.** 91%

**Q.** And the remaining activity at 1.25 µM ([2]; Well no.=5853)?
**A.** 94.2%

**Q.** Which remaining activity at 3.75 µM ([1]; Well no.=8534) does the source give for `O=C(O)CNC(=O)C1C(=O)N(C2CCCCC2)C(=O)N(C2CCCCC2)C1=O` [Daprodustat (GSK1278863)] here?
**A.** 99.9%

**Q.** And the remaining activity at 1.25 µM ([2]; Well no.=8534)?
**A.** 96.6%

**Q.** How did the remaining activity at 3.75 µM ([1]; Well no.=5201) turn out when `CCCCCCCCCC(=O)N[C@@H](Cc1c[nH]c2ccccc12)C(=O)N[C@H](CC(N)=O)C(=O)N[C@@H](CC(=O)O)C(=O)N[C@@H]1C(=O)NCC(=O)N[C@@H](CCCN)C(=O)N[C@@H](CC(=O)O)C(=O)N[C@H](C)C(=O)N[C@@H](CC(=O)O)C(=O)NCC(=O)N[C@H](CO)C(=O)N[C@@H]([C@H](C)CC(=O)O)C(=O)N[C@@H](CC(=O)c2ccccc2N)C(=O)O[C@@H]1C` [Daptomycin] was run?
**A.** 100%

**Q.** What about the remaining activity at 3.75 µM ([1]; Well no.=7796) of the same compound?
**A.** 105%

**Q.** What about the remaining activity at 1.25 µM ([2]; Well no.=5201) of the same compound?
**A.** 98.3%

**Q.** What about the remaining activity at 1.25 µM ([2]; Well no.=7796) of the same compound?
**A.** 104%

**Q.** Which results are given for `CCN(CC)CCN(Cc1ccc(-c2ccc(C(F)(F)F)cc2)cc1)C(=O)Cn1c(SCc2ccc(F)cc2)nc(=O)c2c1CCC2` [Darapladib (SB-480848)]?
**A.** remaining activity at 3.75 µM ([1]; Well no.=8576): 98.6%; remaining activity at 1.25 µM ([2]; Well no.=8576): 101%

**Q.** Which remaining activity at 3.75 µM ([1]; Well no.=5504) does the source give for `Cc1oc(-c2ccccc2)nc1CCC(=O)c1ccc(CC2SC(=O)NC2=O)cc1` (stereo not drawn) [Darglitazone sodium salt] here?
**A.** 98%

**Q.** What about the remaining activity at 1.25 µM ([2]; Well no.=5504) of the same compound?
**A.** 90.6%

**Q.** Which results are given for `NC(=O)C(c1ccccc1)(c1ccccc1)[C@@H]1CCN(CCc2ccc3c(c2)CCO3)C1` [Darifenacin (hydrobromide)]?
**A.** remaining activity at 3.75 µM ([1]; Well no.=7341): 89.4%; remaining activity at 1.25 µM ([2]; Well no.=7341): 95.3%

**Q.** What does the source list for `NC(=O)C(c1ccccc1)(c1ccccc1)[C@@H]1CCN(CCc2ccc3c(c2)CCO3)C1` [Darifenacin HBr]?
**A.** remaining activity at 3.75 µM ([1]; Well no.=5361): 97.1%; remaining activity at 1.25 µM ([2]; Well no.=5361): 104%

**Q.** Which results are given for `CC(C)CN(C[C@@H](O)[C@H](Cc1ccccc1)NC(=O)O[C@H]1CO[C@H]2OCC[C@H]21)S(=O)(=O)c1ccc(N)cc1` [Darunavir (Ethanolate)]?
**A.** remaining activity at 3.75 µM ([1]; Well no.=8504): 90.4%; remaining activity at 1.25 µM ([2]; Well no.=8504): 98.9%

**Q.** For `CC(C)CN(C[C@@H](O)[C@H](Cc1ccccc1)NC(=O)O[C@H]1CO[C@H]2OCC[C@H]21)S(=O)(=O)c1ccc(N)cc1` [Darunavir Ethanolate], which remaining activity at 3.75 µM ([1]; Well no.=8284) is on record?
**A.** 94.1%

**Q.** What about the remaining activity at 1.25 µM ([2]; Well no.=8284) of the same compound?
**A.** 90.9%

**Q.** For `CC(C)CN(C[C@@H](O)[C@H](Cc1ccccc1)NC(=O)O[C@H]1CO[C@H]2OCC[C@H]21)S(=O)(=O)c1ccc(N)cc1` [Darunavir], which remaining activity at 3.75 µM ([1]; Well no.=7318) is on record?
**A.** 108%

**Q.** What about the remaining activity at 1.25 µM ([2]; Well no.=7318) of the same compound?
**A.** 108%

**Q.** How did the remaining activity at 3.75 µM ([1]; Well no.=2933) turn out when `Cc1nc(Nc2ncc(C(=O)Nc3c(C)cccc3Cl)s2)cc(N2CCN(CCO)CC2)n1` [Dasatinib] was run?
**A.** 97.3%

**Q.** And the remaining activity at 1.25 µM ([2]; Well no.=2933)?
**A.** 101%

**Q.** What does the source list for `O=c1c(O)c(-c2ccccc2O)oc2cc(O)cc(O)c12` [Datiscetin]?
**A.** remaining activity at 3.75 µM ([1]; Well no.=3251): 96.6%; remaining activity at 1.25 µM ([2]; Well no.=3251): 95.3%

**Q.** With `COc1cccc2c1C(=O)c1c(O)c3c(c(O)c1C2=O)C[C@@](O)(C(C)=O)C[C@@H]3O[C@H]1C[C@H](N)[C@H](O)[C@H](C)O1` [Daunorubicin hydrochloride] as the compound, how does the remaining activity at 3.75 µM ([1]; Well no.=728) read?
**A.** 94.8%

**Q.** What about the remaining activity at 1.25 µM ([2]; Well no.=728) of the same compound?
**A.** 94%

**Q.** With `COc1cccc2c1C(=O)c1c(O)c3c(c(O)c1C2=O)C[C@@](O)(C(C)=O)C[C@@H]3O[C@H]1C[C@H](N)[C@H](O)[C@H](C)O1` [Daunorubicin] as the compound, how does the remaining activity at 3.75 µM ([1]; Well no.=1708) read?
**A.** 97.4%

**Q.** And the remaining activity at 3.75 µM ([1]; Well no.=3221)?
**A.** 104%

**Q.** What about the remaining activity at 1.25 µM ([2]; Well no.=1708) of the same compound?
**A.** 96.8%

**Q.** What about the remaining activity at 1.25 µM ([2]; Well no.=3221) of the same compound?
**A.** 103%

**Q.** What does the source list for `N=C(N)N1CCc2ccccc2C1` [Debrisoquin sulfate]?
**A.** remaining activity at 3.75 µM ([1]; Well no.=397): 104%; remaining activity at 1.25 µM ([2]; Well no.=397): 103%

**Q.** How did the remaining activity at 3.75 µM ([1]; Well no.=1905) turn out when `N=C(N)N1CCc2ccccc2C1` [Debrisoquin] was run?
**A.** 99.9%

**Q.** And the remaining activity at 1.25 µM ([2]; Well no.=1905)?
**A.** 99.9%

**Q.** How did the remaining activity at 3.75 µM ([1]; Well no.=683) turn out when `C[N+](C)(C)CCCCCCCCCC[N+](C)(C)C` [Decamethonium dibromide] was run?
**A.** 95.4%

**Q.** What about the remaining activity at 1.25 µM ([2]; Well no.=683) of the same compound?
**A.** 94%

**Q.** `C[N+](C)(C)CCCCCCCCCC[N+](C)(C)C` [Decamethonium] was tested. Which remaining activity at 3.75 µM ([1]; Well no.=1554) did it give?
**A.** 100%

**Q.** What about the remaining activity at 1.25 µM ([2]; Well no.=1554) of the same compound?
**A.** 97.2%

**Q.** Which remaining activity at 3.75 µM ([1]; Well no.=6453) does the source give for `O=C(O)CCCCCCCCC(=O)O` [Decanedioic acid] here?
**A.** 95.8%

**Q.** And the remaining activity at 1.25 µM ([2]; Well no.=6453)?
**A.** 93%

**Q.** `CCCCCCCCCC(=O)O` [Decanoic acid] was tested. Which remaining activity at 3.75 µM ([1]; Well no.=4540) did it give?
**A.** 95.8%

**Q.** And the remaining activity at 3.75 µM ([1]; Well no.=6973)?
**A.** 107%

**Q.** What about the remaining activity at 1.25 µM ([2]; Well no.=4540) of the same compound?
**A.** 93.6%

**Q.** What about the remaining activity at 1.25 µM ([2]; Well no.=6973) of the same compound?
**A.** 105%

**Q.** What does the source list for `Nc1ncn([C@H]2C[C@H](O)[C@@H](CO)O2)c(=O)n1` [Decitabine]?
**A.** remaining activity at 3.75 µM ([1]; Well no.=5103): 99.8%; remaining activity at 1.25 µM ([2]; Well no.=5103): 102%

**Q.** For `OCCOCCN1CCN(C(c2ccccc2)c2ccccc2)CC1` [Decloxizine (dihydrochloride)], which remaining activity at 3.75 µM ([1]; Well no.=8189) is on record?
**A.** 103%

**Q.** And the remaining activity at 1.25 µM ([2]; Well no.=8189)?
**A.** 102%

**Q.** Which results are given for `C=C1O[C@@](CO)(n2cnc3c(N)ncnc32)[C@H](O)[C@@H]1O` [Decoyinine]?
**A.** remaining activity at 3.75 µM ([1]; Well no.=3223): 104%; remaining activity at 1.25 µM ([2]; Well no.=3223): 100%

**Q.** For `CCCCCCCCCCC1=C(C)C(=O)C(OC)=C(OC)C1=O` [Decylubiquinone], which remaining activity at 3.75 µM ([1]; Well no.=3245) is on record?
**A.** 99.1%

**Q.** What about the remaining activity at 1.25 µM ([2]; Well no.=3245) of the same compound?
**A.** 100%

**Q.** Which remaining activity at 3.75 µM ([1]; Well no.=8190) does the source give for `O=C(O)c1ccc(-n2nc(-c3ccccc3O)nc2-c2ccccc2O)cc1` [Deferasirox] here?
**A.** 100%

**Q.** What about the remaining activity at 1.25 µM ([2]; Well no.=8190) of the same compound?
**A.** 107%

**Q.** Which results are given for `Cc1c(O)c(=O)ccn1C` [Deferiprone]?
**A.** remaining activity at 3.75 µM ([1]; Well no.=5130): 98.7%; remaining activity at 1.25 µM ([2]; Well no.=5130): 97.3%

**Q.** For `CC(=O)OCC(=O)[C@@]12N=C(C)O[C@@H]1C[C@H]1[C@@H]3CCC4=CC(=O)C=C[C@]4(C)[C@H]3[C@@H](O)C[C@@]12C` [Deflazacort], which remaining activity at 3.75 µM ([1]; Well no.=5566) is on record?
**A.** 104%

**Q.** What about the remaining activity at 3.75 µM ([1]; Well no.=7613) of the same compound?
**A.** 97.5%

**Q.** And the remaining activity at 1.25 µM ([2]; Well no.=5566)?
**A.** 103%

**Q.** And the remaining activity at 1.25 µM ([2]; Well no.=7613)?
**A.** 102%

**Q.** `C[C@H](CCC(=O)O)[C@H]1CC[C@H]2[C@@H]3C(=O)C[C@@H]4CC(=O)CC[C@]4(C)[C@H]3CC(=O)[C@]12C` [Dehydrocholic acid] was tested. Which remaining activity at 3.75 µM ([1]; Well no.=8300) did it give?
**A.** 99%

**Q.** What about the remaining activity at 1.25 µM ([2]; Well no.=8300) of the same compound?
**A.** 100%

**Q.** Which results are given for `C=C1CC[C@H]2C(=C)CC[C@H]3C(=C)C(=O)O[C@@H]3[C@@H]12` [Dehydrocostus lactone]?
**A.** remaining activity at 3.75 µM ([1]; Well no.=3206): 100%; remaining activity at 1.25 µM ([2]; Well no.=3206): 101%
